{
  "source": "patent US20240335547A1",
  "about": "“MODIFIED CHOLIC ACID CONJUGATES” (priority 2022, published 2024)",
  "key": {"[1]": {"test_system": "human coronavirus 229E", "assay": "Therapeutic activity against human coronavirus 229E in HFF cells", "format": "cell-based", "settings": "added 24 hours post infection, cell viability", "description": "(1) HFF cells (5×104) were seeded with 1 ml of DMEM media supplemented with 10% FBS in each well of four 24-well tissue culture plates. (2) Cell were cultured for 3 days until HFF cells in each well attained 90% confluency (media was changed 1 day before infection). 10 μl of the 10-time diluted original solution of coronavirus, about 1×10^5 PFU were added into each well. Infection was allowed to proceed overnight. (3) The media was changed 24 hours post infection. CSA-44 was added to test their anti-viral effects. Ten different concentrations of the drug were tested. They were 15 μg/ml, 10 μg/ml, 9 μg/ml, 8 μg/ml, 7 μg/ml, 6 μg/ml, 5 μg/ml, 4 μg/ml, 3 μg/ml, and 2 μg/ml with 0 μg/ml as the control. Each concentration has 12 wells for test. Cells were cultured for two weeks, and cell viability was quantified. CSA-44 was effective in inhibiting viral replication and growth. The values of EC50 (where EC is the concentration of the active that gives 50% of the maximal response) of CSA-44 is identified as 4 μg/ml.\n(1) HFF cells (5×104) were seeded with 1 ml of DMEM media supplemented with 10% FBS in each well of four 24-well tissue culture plates. (2) Cells were cultured for 3 days until HFF cells in each well attained 90% confluency (media was changed 1 day before infection). Ten μl of the 10-time diluted original solution of coronavirus, about 1×10^5 PFU, were added into each well. Infection was allowed to proceed overnight. (3) The media was changed 24 hours post infection. Different concentrations of CSA-44 were added to test their anti-viral effects. Each concentration has 12 wells for test. Cells were cultured in the presence of CSA-44 for […] and cell viability was quantified.\n(1) HFF cells (5×104) were seeded with 1 ml of DMEM media supplemented with 10% FBS in each well of four 24-well tissue culture plates. (2) Cells were cultured for 3 days until HFF cells in each well attained 90% confluency (media was changed 1 day before infection). […] Cells were cultured for two weeks, and cell viability was quantified. […]"}, "[2]": {"test_system": "HFF (human foreskin fibroblast) cells", "assay": "Cytotoxicity in human primary cell cultures (Trypan Blue Staining)", "format": "cell-based", "settings": "HFF cells, 48 hours, Trypan Blue Staining", "description": "(1) HFF (human foreskin fibroblast) cells (2×105) were seeded with 2 ml of DMEM medium supplemented with 10% FBS in each well of two 12-well tissue culture plates. (2) Cells were cultured for 3 days. CSA-44 was added to test for cell toxicity. Eleven concentrations were tested: 40 μg/ml, 30 μg/ml, […], 17.5 μg/ml, 15 μg/ml, 12.5 μg/ml, 10 μg/ml, 7.5 μg/ml, 5 μg/ml, 2.5 μg/ml, and 1 μg/ml. Samples with concentration of 0 μg/ml were used as the control. Each concentration was tested in duplicates with two wells. (3) Cells were cultured for 48 hours with CSA-44. Trypan Blue Staining was used to determine the numbers of living and dead cells on a hemocytometer. Percentages of living and dead cells in each sample were calculated.\n(1) HFF cells (2×105) were seeded with 2 ml of DMEM medium supplemented with 10% FBS in each well of two 12-well tissue culture plates. (2) Cells were cultured for 3 days. CMA Conjugate was added to test for cell toxicity. Eleven concentrations were tested. They were 100 μg/ml, 80 μg/ml, 60 μg/ml, 50 μg/ml, 40 μg/ml, 30 μg/ml, 25 μg/ml, 20 μg/ml, 15 μg/ml, 10 μg/ml, and 5 μg/ml. Samples with concentration of 0 μg/ml were used as the control. Each concentration was tested in duplicates with two wells. (3) Cells were cultured for 48 hours with CMA Conjugate. […] Percentages of living and dead cells in each sample were calculated."}},
  "data": [
    {"smiles": "CCCCCCCCOC(=O)CC[C@@H](C)[C@H]1CC[C@H]2[C@@H]3[C@H](OC(=O)CCN)C[C@@H]4C[C@H](OC(=O)CCN)CC[C@]4(C)[C@H]3C[C@H](OC(=O)CCN)[C@]12C", "note": "[CSA-44]", "values": [
      {"measurement": "EC50", "setting": "[1]; cells cultured for three weeks", "result": "~4", "unit": "µg/mL"},
      {"measurement": "EC50", "setting": "[1]; cells cultured for two weeks", "result": 4, "unit": "µg/mL"},
      {"measurement": "CC50", "setting": "[2]", "result": "around 15 μg/ml"}
    ]}
  ]
}
